Measurements taken from PMC4449299 (Developmental cell, 2015).

T1: Mid1 (C-terminal domain, 579-920) (Schizosaccharomyces pombe, UniProt P78953)
T1 sequence (P78953 579-920): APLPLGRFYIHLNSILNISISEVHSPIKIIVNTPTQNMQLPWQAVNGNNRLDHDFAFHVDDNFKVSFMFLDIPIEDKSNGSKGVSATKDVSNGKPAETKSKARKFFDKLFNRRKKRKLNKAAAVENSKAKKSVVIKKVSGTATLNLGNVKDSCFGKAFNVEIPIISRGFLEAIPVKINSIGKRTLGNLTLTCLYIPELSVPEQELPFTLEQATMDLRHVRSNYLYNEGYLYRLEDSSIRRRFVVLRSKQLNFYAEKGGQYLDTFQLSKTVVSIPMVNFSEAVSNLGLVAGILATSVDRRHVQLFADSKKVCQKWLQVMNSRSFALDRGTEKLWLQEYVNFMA

T2: AHD (anillin-homology domain of anillin, 712-981) (Homo sapiens, UniProt Q9NQW6)
T2 sequence (Q9NQW6 712-981): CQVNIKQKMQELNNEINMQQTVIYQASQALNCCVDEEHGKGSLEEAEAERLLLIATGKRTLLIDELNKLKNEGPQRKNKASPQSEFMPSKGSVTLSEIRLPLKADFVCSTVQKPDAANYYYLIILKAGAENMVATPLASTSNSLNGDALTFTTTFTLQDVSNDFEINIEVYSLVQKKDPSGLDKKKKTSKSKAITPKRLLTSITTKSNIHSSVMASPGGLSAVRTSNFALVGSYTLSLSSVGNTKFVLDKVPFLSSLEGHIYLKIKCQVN


Tests used:
[1] = target: T1, Mid1 (C-terminal domain, 579-920); experiment: SPR, L1 chip, liposomes; assay type: binding; details: PI(4,5)P2 vesicles; dimeric Mid1; given as 'up to'; room temperature
AHD-PH + RhoA* = AHD-PH + RhoA* (Homo sapiens, UniProt Q9NQW6); experiment: SPR, L1 chip, liposomes; assay type: binding; details: PI(4,5)P2 vesicles; with lipid-modified RhoA; room temperature
[2] = target: T2, AHD (anillin-homology domain of anillin, 712-981); experiment: SPR, L1 chip, liposomes; assay type: binding; details: PI(4,5)P2 vesicles; room temperature
RhoA(181)-Q63L = RhoA(181)-Q63L (UniProt P61586 1-181, Q63L); experiment: ITC
RhoA(181)-Q63L, sequence (P61586 1-181 Q63L): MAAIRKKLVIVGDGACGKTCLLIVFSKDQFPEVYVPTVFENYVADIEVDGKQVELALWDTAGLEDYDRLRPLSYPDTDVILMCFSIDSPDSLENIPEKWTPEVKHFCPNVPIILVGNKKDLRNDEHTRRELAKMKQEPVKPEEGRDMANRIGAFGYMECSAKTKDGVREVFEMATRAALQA

AHD-PH + RhoA*, sequence (Q9NQW6 712-1124): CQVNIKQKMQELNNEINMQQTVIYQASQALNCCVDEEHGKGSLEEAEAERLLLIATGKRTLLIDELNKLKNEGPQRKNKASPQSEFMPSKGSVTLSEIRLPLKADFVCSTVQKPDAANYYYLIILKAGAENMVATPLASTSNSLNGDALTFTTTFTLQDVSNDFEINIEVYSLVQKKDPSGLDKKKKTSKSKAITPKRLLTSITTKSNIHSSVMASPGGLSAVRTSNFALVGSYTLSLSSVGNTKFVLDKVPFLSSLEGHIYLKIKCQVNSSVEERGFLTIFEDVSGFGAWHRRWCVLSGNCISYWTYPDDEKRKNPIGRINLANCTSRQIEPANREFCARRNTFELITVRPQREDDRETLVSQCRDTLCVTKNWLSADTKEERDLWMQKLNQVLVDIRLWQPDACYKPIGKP
AHD-PH + RhoA*, sequence (P61586 1-190 partner): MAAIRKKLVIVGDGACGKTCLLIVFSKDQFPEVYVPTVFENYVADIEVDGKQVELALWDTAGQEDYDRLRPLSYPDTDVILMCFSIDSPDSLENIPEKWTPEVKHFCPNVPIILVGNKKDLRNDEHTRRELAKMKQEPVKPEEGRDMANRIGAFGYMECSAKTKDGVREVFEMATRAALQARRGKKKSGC

Row | Kd [1] [nM] | Kd (AHD-PH + RhoA*) [nM] | Kd [2] [nM] | dH (RhoA(181)-Q63L) [kcal/mol] | Molecule
1 | 120 | ~280 | ~14000 | – | PI(4,5)P2
2 | – | – | – | 3.97 | anillin-homology domain (AHD) of human anillin (712–981) (domain or fragment, UniProt Q9NQW6 712-981, looked up) CQVNIKQKMQELNNEINMQQTVIYQASQALNCCVDEEHGKGSLEEAEAERLLLIATGKRTLLIDELNKLKNEGPQRKNKASPQSEFMPSKGSVTLSEIRLPLKADFVCSTVQKPDAANYYYLIILKAGAENMVATPLASTSNSLNGDALTFTTTFTLQDVSNDFEINIEVYSLVQKKDPSGLDKKKKTSKSKAITPKRLLTSITTKSNIHSSVMASPGGLSAVRTSNFALVGSYTLSLSSVGNTKFVLDKVPFLSSLEGHIYLKIKCQVN
